Key:
Format in all cases: physicochemical
[1] = Water-solubility evaluation; conditions: 20° C.
[2] = Stability test (accelerated condition); conditions: for Water contents: Karl Fischer; for Water contents / HPLC purity: accelerated condition (40±2° C., 75±5% RH)
Text: The results obtained by measuring purities (the HPLC purities) and water contents (by Karl Fischer method) are shown in Table 1 below.

[3] = Hygroscopicity evaluation by Dynamic Vapor Sorption (DVS)
[4] = Photostability test according to ICH guideline Q1B; conditions: for Water contents: Karl Fischer
Method: Photostability tests were carried out according to ICH guideline Q1B. […] The results obtained by measuring purities (the HPLC purities) and water contents (by Karl Fischer method) are shown in Table 2 below.

Molecule | solubility [1] | stability (form changes) in the accelerated condition ([2]; amorphous free base) | hygroscopicity (in words) ([3]; amorphous free base) | difference in the water contents under the accelerated condition ([2]; 40±2° C., 75±5% RH, up to 3 months) | stability by XRD and appearance under the accelerated condition ([2]; 40±2° C., 75±5% RH, FIGS. 5 and 6) | Water contents ([2]; 1 month) | Water contents ([2]; 3 months) | Water contents ([2]; Initial) | HPLC purity ([2]; 1 month) | HPLC purity ([2]; 3 months) | HPLC purity ([2]; Initial) | Moisture adsorption ([3]; weight change, room temperature (about 25° C.), RH 80%, 24 hours) | HPLC purity ([4]; Initial) | Water contents ([4]; Initial) | Water contents ([4]; Light exposure (UV light for 10 hours / visible light for 40 hours)) | HPLC purity ([4]; Light exposure (UV light 20 W/m^2 for 10 hours / visible light 30,000 lux for 40 hours))
CC(C)Oc1ccc(-c2ccc3c(c2)CC(C)(C)C3NC(=O)O[C@@H]2CN3CCC2CC3)cc1Cl (stereo partly drawn) [Compound of WO 2021/096238, (S)-quinuclidin-3-yl (5-(3-chloro-4-isopropoxyphenyl)-2,2-dimethyl-2,3-dihydro-1H-inden-1-yl)carbamate, reference compound] | < 10 µg/mL | low stability | high hygroscopicity |  |  |  |  |  |  |  |  |  |  |  |  | 
((1S,4R)-7,7-dimethyl-2-oxobicyclo[2.2.1]heptan-1-yl)methanesulfonic acid salt of (S)-quinuclidin-3-yl ((R)-5-(3-chloro-4-isopropoxyphenyl)-2,2-dimethyl-2,3-dihydro-1H-inden-1-yl)carbamate [Example 1] |  |  |  | ≤ 1.0% | excellent stability | 0.32% | 1.28% | 0.48% | 98.6% | 98.6% | 98.6% | 2.3% | 98.6% | 0.48% | 0.31% | 98.6%

Reference: patent publication US20260146038A1, “NOVEL SALT OF DIMETHYL-2,3-DIHYDRO-1H-INDENE DERIVATIVE AND PROCESSES FOR PREPARING THE SAME” (YUHAN CORPORATION, priority 2022, published 2026)
